The values that follow come from patent US20260028354A1, “TETRAHYDRONAPHTHALENE DERIVATIVES AS ESTROGEN RECEPTOR DEGRADERS” (REGENT OF THE UNIVERSITY OF MICHIGAN, priority 2022, published 2026).

The nature of the assay: Western blot analysis for "B" compounds. As to conditions: read-out: Traditional Western Degradation Potency (DC50). It counts as cell-based. The method, then: Western Blot Analysis. Western blot analysis was performed essentially as described previously. The cells treated with indicated compounds were lysed in Radioimmunoprecipitation Assay Protein Lysis and Extraction Buffer (25 mmol/I. Tris.HCl, pH 7.6, 150 mmol/L, NaCl, 1% Nonidet P-40, 1% sodium deoxycholate, and 0.1% sodium dodecyl sulfate) containing proteinase inhibitor cocktail (Roche Diagnostics, Mannheim, Germany). Equal amounts of total protein were electrophoresed through 10% SDS-polyacrylamide gels after determination of protein concentration by BCA assay (Fisher Scientific, Pittsburgh, PA), The separated protein bands were transferred onto PVDF membranes (GE Healthcare Life Sciences, Marlborough, MA) and blotted against different antibodies, as indicated. The blots were scanned, and the band intensities were quantified using GelQuant.NET software provided by biochemlabsolutions.com. The relative mean intensity of target proteins was expressed after normalization to the intensity of glyceraldehyde-3-phosphate dehydrogenase bands.
Background: A western blot detects proteins with antibodies after separation by electrophoresis.
For orientation: DC50 means the midpoint of the concentration-degradation curve. As for `O=C1CCC(N2Cc3cc4c(cc3C2=O)CN(C2CCN(CC3CCN(c5ccc([C@@H]6c7ccc(O)cc7CC[C@@H]6c6ccc(F)cc6)cc5)CC3)CC2)C4)C(=O)N1` (stereo partly drawn) [Compound B68, 3-(6-(1-((1-(4-((1R,2S)-2-(4-fluorophenyl)-6-hydroxy-1,2,3,4-tetrahydronaphthalen-1-yl)phenyl)piperidin-4-yl)methyl)piperidin-4-yl)-1-oxo-3,5,6,7-tetrahydropyrrolo[3,4-f]isoindol-2(1H)-yl)piperidine-2,6-dione], the DC50 was less than 10 nM.
With `O=C1CCC(N2C(=O)c3cc4c(cc3C2=O)CN(CC2CCN(C(=O)C3CN(c5ccc([C@@H]6c7ccc(O)cc7CC[C@@H]6c6ccccc6)cc5)C3)CC2)C4)C(=O)N1` (mixture of isomers) [Compound B35, 2-(2,6-dioxopiperidin-3-yl)-6-((1-(1-(4-((1R,2S)-6-hydroxy-2-phenyl-1,2,3,4-tctrahydronaphthalcn-1-yl)phcnyl)azctidinc-3-carbonyl)piperidin-4-yl)methyl)-6,7-dihydropyrrolo[3,4-f]isoindole-1,3(2H,5H)-dione] the figure was 10 to 100 nM.
To `O=C1CCC(N2C(=O)c3cc4c(cc3C2=O)CN(CC(=O)N2CC3(CCN(c5ccc([C@@H]6c7ccc(O)cc7CC[C@@H]6c6ccccc6)cc5)CC3)C2)CC4)C(=O)N1` (mixture of isomers) [Compound B192, 2-(2,6-dioxopiperidin-3-yl)-6-(2-(7-(4-((1R,2S)-6-hydroxy-2-phenyl-1,2,3,4-tetrahydronaphthalen-1-yl)phenyl)-2,7-diazaspiro[3.5]nonan-2-yl)-2-oxoethyl)-5,6,7,8-tetrahydro-1H-pyrrolo[3,4-g]isoquinoline-1,3(2H)-dione] belongs 10 to 100 nM.
To `O=C1CCC(N2C(=O)c3cc4c(cc3C2=O)CN(CC(=O)N2CCC[C@H](Oc3ccc([C@@H]5c6ccc(O)cc6CC[C@@H]5c5ccc(F)cc5)cc3)C2)C4)C(=O)N1` (stereo partly drawn) [Compound B36, 2-(2,6-dioxopiperidin-3-yl)-6-(2-((S)-3-(4-((1R,2S)-2-(4-fluorophenyl)-6-hydroxy-1,2,3,4-tetrahydronaphthalen-1-yl)phenoxy)piperidin-1-yl)-2-oxoethyl)-6,7-dihydropyrrolo[3,4-f]isoindole-1,3(2H,5H)-dione] belongs greater than 100 nM; to `CN(C1CCN(c2ccc([C@@H]3c4ccc(O)cc4CC[C@@H]3c3ccccc3)cc2)CC1)C1CC(C(=O)N2Cc3cc4c(cc3C2)C(=O)N(C2CCC(=O)NC2=O)C4=O)C1` (stereo partly drawn) [Compound B111, 2-(2,6-dioxopiperidin-3-yl)-6-(3-((1-(4-((1R,2S)-6-hydroxy-2-phenyl-1,2,3,4-tetrahydronaphthalen-1-yl)phenyl)piperidin-4-yl)(methyl)amino)cyclobutane-1-carbonyl)-6,7-dihydropyrrolo[3,4-f]isoindole-1,3(2H,5H)-dione], greater than 100 nM.
Take `O=C1CCC(N2C(=O)c3cc4c(cc3C2=O)CN(C(=O)CN2CCC3(CC2)CCN(c2ccc([C@@H]5c6ccc(B(O)O)cc6CC[C@@H]5c5ccccc5)cc2)CC3)C4)C(=O)N1` (mixture of isomers) [Compound B51, ((5R,6S)-5-(4-(9-(2-(6-(2,6-dioxopiperidin-3-yl)-5,7-dioxo-3,5,6,7-tetrahydropyrrolo[3,4-f]isoindol-2(1H)-yl)-2-oxoethyl)-3,9-diazaspiro[5.5]undecan-3-yl)phenyl)-6-phenyl-5,6,7,8-tetrahydronaphthalen-2-yl)boronic acid]: the DC50 is greater than 100 nM.
To `O=C1CCC(N2C(=O)c3cc4c(cc3C2=O)CN(CC2CCC(N3CCN(c5ccc([C@@H]6c7ccc(O)cc7CC[C@@H]6c6ccccc6)cc5)CC3)CC2)C4)C(=O)N1` (stereo partly drawn) [Compound B83, 2-(2,6-dioxopiperidin-3-yl)-6-((4-(4-(4-((1R,2S)-6-hydroxy-2-phenyl-1,2,3,4-tetrahydronaphthalen-1-yl)phenyl)piperazin-1-yl)cyclohcxyl)mcthyl)-6,7-dihydropyrrolo[3,4-f]isoindolc-1,3(2H,5H)-dione] belongs 10 to 100 nM.
To `CN(C1CCC(CN2Cc3cc4c(cc3C2)C(=O)N(C2CCC(=O)NC2=O)C4)CC1)C1CCN(c2ccc([C@@H]3c4ccc(O)cc4CC[C@@H]3c3ccccc3)cc2)CC1` (stereo partly drawn) [Compound B202, 3-(6-((4-((1-(4-((1R,2S)-6-hydroxy-2-phenyl-1,2,3,4-tetrahydronaphthalen-1-yl)phenyl)piperidin-4-yl)(methyl)amino)cyclohexyl)methyl)-1-oxo-3,5,6,7-tetrahydropyrrolo[3,4-f]isoindol-2(1H)-yl)piperidine-2,6-dione] belongs greater than 100 nM; to `O=C1CCC(N2C(=O)c3cc4c(cc3C2=O)CN(C(=O)CN2CCC3(CC2)CCN(c2ccc([C@@H]5c6ccc(O)cc6CC[C@@H]5c5ccccc5)c(F)c2)C3)C4)C(=O)N1` (mixture of isomers) [Compound B32, 2-(2,6-dioxopiperidin-3-yl)-6-(2-(2-(3-fluoro-4-((1S,2S)-6-hydroxy-2-phenyl-1,2,3,4-tetrahydronaphthalen-1-yl)phenyl)-2,8-diazaspiro[4.5]decan-8-yl)acetyl)-6,7-dihydropyrrolo[3,4-f]isoindole-1,3(2H,5H)-dione], greater than 100 nM; to `O=C1CCC(N2C(=O)c3cc4c(cc3C2=O)CN(CC(=O)N2CCC(N3CC(Oc5ccc([C@@H]6c7ccc(O)cc7CC[C@@H]6c6ccccc6)cc5)C3)CC2)C4)C(=O)N1` (stereo partly drawn) [Compound B121, 2-(2,6-dioxopiperidin-3-yl)-6-(2-(4-(3-(4-((1R,2S)-6-hydroxy-2-phenyl-1,2,3,4-tetrahydronaphthalen-1-yl)phenoxy)azetidin-1-yl)piperidin-1-yl)-2-oxoethyl)-6,7-dihydropyrrolo[3,4-f]isoindole-1,3(2H,5H)-dione], 10 to 100 nM.
With `O=C1CCC(N2C(=O)c3cc4c(cc3C2=O)CN(CC2(F)CCN(C(=O)C3CCN(c5ccc([C@@H]6c7ccc(O)cc7CC[C@@H]6c6ccccc6)cc5)CC3)CC2)C4)C(=O)N1` (stereo partly drawn) [Compound B267, 2-(2,6-dioxopiperidin-3-yl)-6-((4-fluoro-1-(1-(4-((1R,2S)-6-hydroxy-2-phenyl-1,2,3,4-tetrahydronaphthalen-1-yl)phenyl)piperidine-4-carbonyl)piperidin-4-yl)methyl)-6,7-dihydropyrrolo[3,4-f]isoindole-1,3(2H,5H)-dione] the figure was greater than 100 nM.
For `O=C1CCC(N2C(=O)c3cc4c(cc3C2=O)CN(C(=O)[C@H]2CC[C@H](N3CC(Oc5ccc([C@@H]6c7ccc(O)cc7CC[C@@H]6c6ccccc6)cc5)C3)CC2)C4)C(=O)N1` (stereo partly drawn) [Compound B127, 2-(2,6-dioxopiperidin-3-yl)-6-((1S,4r)-4-(3-(4-((1R,2S)-6-hydroxy-2-phenyl-1,2,3,4-tetrahydronaphthalen-1-yl)phenoxy)azetidin-1-yl)cyclohexane-1-carbonyl)-6,7-dihydropyrrolo[3,4-f]isoindole-1,3(2H,5H)-dione], the DC50 was greater than 100 nM.
`O=C1CCC(N2Cc3cc4c(cc3C2=O)CN(C[C@H]2CC[C@H](C(=O)N3CC(Oc5ccc([C@@H]6c7ccc(O)cc7CC[C@@H]6c6ccccc6)cc5)C3)CC2)C4)C(=O)N1` (stereo partly drawn) [Compound B294, 3-(6-(((1R,4r)-4-(3-(4-((1R,2S)-6-hydroxy-2-phenyl-1,2,3,4-tetrahydronaphthalen-1-yl)phenoxy)azetidine-1-carbonyl)cyclohexyl)methyl)-1-oxo-3,5,6,7-tetrahydropyrrolo[3,4-f]isoindol-2(1H)-yl)piperidine-2,6-dione]: the half-maximal degradation concentration (DC50) is less than 10 nM.
